Where two headings read alike, the source gives them in different places.
Legend:
[1] = system: A. baumannii 1363934 [OXA 51, OXA 23]; experiment: MIC by agar dilution (Muller Hinton Agar, CLSI); format: cell-based; settings: Acinetobacter baumannii
Protocol: (§1) The antibacterial activity of combinations according to the invention was investigated against various bacterial strains. In a typical study, minimum inhibitory concentrations (MIC) were determined using Muller Hinton Agar (MHA) (BD, USA) according to Clinical and Laboratory Standards Institute (CLSI) recommendations, (Clinical and Laboratory Standards Institute (CLSI), Performance Standards for Antimicrobial Susceptibility Testing, 20th Informational Supplement, M 100-S20, Volume 30, No. 1, 2010). In short, the inocula were adjusted to deliver about 10^4 colony forming units (CFU) per spot with a multipoint inoculator (Applied Quality Services, UK). The plates were pored with doubling concentration range of the test combinations according to invention containing MHA. The plates were inoculated and were incubated at 35° C. for 18 hours.

[2] = system: A. baumannii NCTC 13304 [OXA 51, OXA 27]; experiment: MIC by agar dilution (Muller Hinton Agar, CLSI); format: cell-based; settings: Acinetobacter baumannii
Protocol: as §1

[3] = system: A. baumannii S 8 [OXA 51, OXA 23]; experiment: MIC by agar dilution (Muller Hinton Agar, CLSI); format: cell-based; settings: Acinetobacter baumannii
Protocol: as §1

[4] = system: A. baumannii J 145 [OXA 51, OXA 24]; experiment: MIC by agar dilution (Muller Hinton Agar, CLSI); format: cell-based; settings: Acinetobacter baumannii
Protocol: as §1

[5] = system: A. baumannii 1449880 [OXA 51, OXA 23]; experiment: MIC by agar dilution (Muller Hinton Agar, CLSI); format: cell-based; settings: Acinetobacter baumannii
Protocol: as §1

[6] = system: A. baumannii NCTC 13302 [OXA 51, OXA 25]; experiment: MIC by agar dilution (Muller Hinton Agar, CLSI); format: cell-based; settings: Acinetobacter baumannii
Protocol: as §1

[7] = system: Acinetobacter baumannii NCTC 13301 producing Carbapenemase hydrolyzing OXA 23 enzyme; experiment: Time kill study; format: cell-based; settings: for Effect on bacterial count throughout the duration of the study (in words): cefepime, sulbactam, imipenem at 8 mcg/ml, compound of Formula (I) at 4 mcg/ml, alone or in combination
Protocol: (§2) The synergistic killing effect of the combinations according to invention was studied by performing typical time kill studies. Typically, freshly grown cultures were diluted to the required cell density (initial starting inoculum) in Cation adjusted Muller Hinton broth medium (BD, USA). The antibacterial agents at the required concentrations were added into the culture-containing medium either alone or in combination. The samples were incubated under shaking condition (120 rpm) at 37° C. Enumeration of viable bacterial count was undertaken, every 2 hour, by diluting in normal saline and plating on to the Tryptic Soya Agar plates (BD, USA). The plates were incubated for 24 hours to arrive at the viable bacterial count. […] The decrease of 1 Log CFU/ml, after administration of combination of present invention, in comparison to initial bacterial count corresponds to 90% killing of bacteria. Similarly, 2 Log CFU/ml reductions corresponds to 99% killing of bacteria and 3 Log CFU/ml reductions is equal to 99.9% killing of bacteria.
(§3) The assay without any antibacterial agent was taken as control.

[8] = system: Acinetobacter baumannii NCTC 13302 producing carbapenemase hydrolyzing OXA 25 enzyme; experiment: Time kill study; format: cell-based; settings: for Effect on bacterial count throughout the duration of the study (in words): cefepime, sulbactam, imipenem at 8 mcg/ml, compound of Formula (I) at 4 mcg/ml, alone or in combination
Protocol: as §2, §3

[9] = system: carbapenam hydrolyzing (CHDL) and oxacillinases (OXA) producing Acinetobactor strains; experiment: Antibacterial activity, summary statements over Tables 1-3; format: cell-based, Acinetobacter baumannii; settings: for Change of MIC values in the presence of compound of Formula (I) (in words): Table 1 strains, compound of Formula (I) at 4 or 8 mcg/ml; for Antibacterial effect against highly resistant strains of A. baumannii (in words): summary of Tables 1-3
Protocol: as §1, §2

[10] = agent alone, A. baumannii 1363934, read-out: MIC
[11] = NCTC13304, agent alone, A. baumannii NCTC 13304, read-out: MIC
[12] = agent alone, A. baumannii S 8, read-out: MIC
[13] = agent alone, A. baumannii J 145, read-out: MIC
[14] = agent alone, A. baumannii 1449880, read-out: MIC
[15] = NCTC13302, agent alone, A. baumannii NCTC 13302, read-out: MIC
[16] = 0 hours, agent alone at 8 mcg/ml
[17] = 2 hours, agent alone at 8 mcg/ml
[18] = 4 hours, agent alone at 8 mcg/ml
[19] = 6 hours, agent alone at 8 mcg/ml
[20] = 8 hours, agent alone at 8 mcg/ml
[21] = 0 hours, agent alone at 4 mcg/ml
[22] = 2 hours, agent alone at 4 mcg/ml
[23] = 4 hours, agent alone at 4 mcg/ml
[24] = 6 hours, agent alone at 4 mcg/ml
[25] = 8 hours, agent alone at 4 mcg/ml
[26] = read-out: MIC (mcg/ml) in presence of Compound of Formula (I) at 4 mcg/ml
[27] = read-out: MIC (mcg/ml) in presence of Compound of Formula (I) at 8 mcg/ml

MIC [1, 10] [µg/mL]	MIC [2, 11] [µg/mL]	MIC [3, 12] [µg/mL]	MIC [4, 13] [µg/mL]	MIC [5, 14] [µg/mL]	MIC [6, 15] [µg/mL]	SMILES	Bacterial count (Log10 CFU/ml) [7, 16] [Log10 CFU/ml]	Bacterial count (Log10 CFU/ml) [7, 17] [Log10 CFU/ml]	Bacterial count (Log10 CFU/ml) [7, 18] [Log10 CFU/ml]	Bacterial count (Log10 CFU/ml) [7, 19] [Log10 CFU/ml]	Bacterial count (Log10 CFU/ml) [7, 20] [Log10 CFU/ml]	Effect on bacterial count throughout the duration of the study (in words) ([7]; 8 hours)	Bacterial count (Log10 CFU/ml) [8, 16] [Log10 CFU/ml]	Bacterial count (Log10 CFU/ml) [8, 17] [Log10 CFU/ml]	Bacterial count (Log10 CFU/ml) [8, 18] [Log10 CFU/ml]	Bacterial count (Log10 CFU/ml) [8, 19] [Log10 CFU/ml]	Bacterial count (Log10 CFU/ml) [8, 20] [Log10 CFU/ml]	Effect on bacterial count throughout the duration of the study (in words) ([8]; 8 hours)	Change of MIC values in the presence of compound of Formula (I) (in words) [9]	Antibacterial effect against highly resistant strains of A. baumannii (in words) [9]	also measured
> 32	32	> 32	32	> 32	32	CO/N=C(\C(=O)N[C@@H]1C(=O)N2C(C(=O)[O-])=C(C[N+]3(C)CCCC3)CS[C@H]12)c1csc(N)n1 [Cefepime]	6.32	8.26	8.06	8.26	8.13	not effective to decrease the bacterial count	6.30	7.740	7.929	7.662	7.56	not effective to decrease the bacterial count	significantly decreased	ineffective	MIC ([1]; with Compound of Formula (I) at 4 mcg/ml, A. baumannii 1363934, read-out: MIC (mcg/ml) in presence of Compound of Formula (I) at 4 mcg/ml): 16 µg/mL; MIC ([1]; with Compound of Formula (I) at 8 mcg/ml, A. baumannii 1363934, read-out: MIC (mcg/ml) in presence of Compound of Formula (I) at 8 mcg/ml): 8 µg/mL; MIC ([2]; NCTC13304, with Compound of Formula (I) at 4 mcg/ml, A. baumannii NCTC 13304, read-out: MIC (mcg/ml) in presence of Compound of Formula (I) at 4 mcg/ml): 8 µg/mL; MIC ([2]; NCTC13304, with Compound of Formula (I) at 8 mcg/ml, A. baumannii NCTC 13304, read-out: MIC (mcg/ml) in presence of Compound of Formula (I) at 8 mcg/ml): 4 µg/mL; MIC ([3]; with Compound of Formula (I) at 4 mcg/ml, A. baumannii S 8, read-out: MIC (mcg/ml) in presence of Compound of Formula (I) at 4 mcg/ml): 8 µg/mL; MIC ([3]; with Compound of Formula (I) at 8 mcg/ml, A. baumannii S 8, read-out: MIC (mcg/ml) in presence of Compound of Formula (I) at 8 mcg/ml): 8 µg/mL; MIC ([4]; with Compound of Formula (I) at 4 mcg/ml, A. baumannii J 145, read-out: MIC (mcg/ml) in presence of Compound of Formula (I) at 4 mcg/ml): 16 µg/mL; MIC ([4]; with Compound of Formula (I) at 8 mcg/ml, A. baumannii J 145, read-out: MIC (mcg/ml) in presence of Compound of Formula (I) at 8 mcg/ml): 8 µg/mL; MIC ([5]; with Compound of Formula (I) at 4 mcg/ml, A. baumannii 1449880, read-out: MIC (mcg/ml) in presence of Compound of Formula (I) at 4 mcg/ml): 2 µg/mL; MIC ([5]; with Compound of Formula (I) at 8 mcg/ml, A. baumannii 1449880, read-out: MIC (mcg/ml) in presence of Compound of Formula (I) at 8 mcg/ml): 2 µg/mL; MIC ([6]; NCTC13302, with Compound of Formula (I) at 4 mcg/ml, A. baumannii NCTC 13302, read-out: MIC (mcg/ml) in presence of Compound of Formula (I) at 4 mcg/ml): 8 µg/mL; MIC ([6]; NCTC13302, with Compound of Formula (I) at 8 mcg/ml, A. baumannii NCTC 13302, read-out: MIC (mcg/ml) in presence of Compound of Formula (I) at 8 mcg/ml): 8 µg/mL
> 128	> 128	> 128	> 128	> 128	> 128	O=C(NNC(=O)[C@@H]1CC[C@@H]2CN1C(=O)N2OS(=O)(=O)O)[C@@H]1CCNC1 [Compound of Formula (I), trans-sulfuric acid mono-[2-(N′-[(R)-pyrrolidin-3-carbonyl]-hydrazinocarbonyl)-7-oxo-1,6-diaza-bicyclo[3.2.1]oct-6-yl] ester]	–	–	–	–	–	not effective to decrease the bacterial count	–	–	–	–	–	not effective to decrease the bacterial count	–	ineffective	Bacterial count (Log10 CFU/ml) [7, 21]: 6.32 Log10 CFU/ml; Bacterial count (Log10 CFU/ml) [7, 22]: 8.02 Log10 CFU/ml; Bacterial count (Log10 CFU/ml) [7, 23]: 8.36 Log10 CFU/ml; Bacterial count (Log10 CFU/ml) [7, 24]: 8.35 Log10 CFU/ml; Bacterial count (Log10 CFU/ml) [7, 25]: 8.39 Log10 CFU/ml; Bacterial count (Log10 CFU/ml) [8, 21]: 6.30 Log10 CFU/ml; Bacterial count (Log10 CFU/ml) [8, 22]: 7.903 Log10 CFU/ml; Bacterial count (Log10 CFU/ml) [8, 23]: 7.845 Log10 CFU/ml; Bacterial count (Log10 CFU/ml) [8, 24]: 7.875 Log10 CFU/ml; Bacterial count (Log10 CFU/ml) [8, 25]: 8.04 Log10 CFU/ml
> 32	> 32	16	> 32	8	> 32	C[C@@H](O)[C@H]1C(=O)N2C(C(=O)O)=C(SCCN=CN)C[C@H]12 [Imipenem]	6.32	8.20	8.43	8.43	8.51	–	6.30	8.079	8.703	8.176	8.38	–	–	–	–
–	–	–	–	–	–	CC1(C)[C@H](C(=O)O)N2C(=O)C[C@H]2S1(=O)=O [Sulbactam]	6.32	7.27	7.65	7.74	7.81	not effective to decrease the bacterial count	6.30	7.39	7.69	7.34	7.34	not effective to decrease the bacterial count	significantly decreased	ineffective	MIC ([1]; read-out: MIC (mcg/ml)): 16 µg/mL; MIC [1, 26]: 2 µg/mL; MIC [1, 27]: 2 µg/mL; MIC ([2]; NCTC13304, read-out: MIC (mcg/ml)): 16 µg/mL; MIC ([2]; NCTC13304, read-out: MIC (mcg/ml) in presence of Compound of Formula (I) at 4 mcg/ml): 2 µg/mL; MIC ([2]; NCTC13304, read-out: MIC (mcg/ml) in presence of Compound of Formula (I) at 8 mcg/ml): 2 µg/mL; MIC ([3]; read-out: MIC (mcg/ml)): 16 µg/mL; MIC [3, 26]: 8 µg/mL; MIC [3, 27]: 4 µg/mL; MIC ([4]; read-out: MIC (mcg/ml)): 16 µg/mL; MIC [4, 26]: 2 µg/mL; MIC [4, 27]: 2 µg/mL; MIC ([5]; read-out: MIC (mcg/ml)): 8 µg/mL; MIC [5, 26]: 0.5 µg/mL; MIC [5, 27]: 0.5 µg/mL; MIC ([6]; NCTC13302, read-out: MIC (mcg/ml)): 16 µg/mL; MIC ([6]; NCTC13302, read-out: MIC (mcg/ml) in presence of Compound of Formula (I) at 4 mcg/ml): 2 µg/mL; MIC ([6]; NCTC13302, read-out: MIC (mcg/ml) in presence of Compound of Formula (I) at 8 mcg/ml): 1 µg/mL

— US20170151221A1, “PHARMACEUTICAL COMPOSITIONS COMPRISING CEFEPIME OR SULBACTAM” (priority 2014, published 2017)
